Reference: patent US20250228835A1, “PYRIDINYLOXYPYRIDINES AND RELATED COMPOUNDS AND THEIR USE IN TREATING MEDICAL CONDITIONS” (Rectify Pharmaceuticals, Inc., priority 2024, published 2025)

Key:
Type in all cases: cell-based
ABCA4 P1380L = biological target: T1, ABCA4 P1380L (Homo sapiens, UniProt P78363, P1380L); experiment: A4 correction dose-response assay: ABCA4 P1380L HiBit protein expression; details: HEK-293 cells stably expressing HiBit-tagged ABCA4 P1380L; 24 h treatment; top concentration 30 μM; read-out: ABCA4 P1380L EC50, Emax
T1 construct: expressed in transfected cells
Method: Exemplary compounds were evaluated in an A4 correction dose-response assay.
To assess activity against ABCA4 P1380L, the compounds were screened in an assay measuring protein expression, using cells transfected with cDNA encoding HiBit-tagged ABCA4 P1380L. Here we describe an assay for measuring the expression of the P1380L variant of human ABCA4 (henceforth referred to as ABCA4 P1380L) and the use of this assay to measure the efficacy of compounds to increase the expression of ABCA4 P1380L. The assay was designed to characterize the efficacy and potency of compounds to increase the expression of ABCA4 P1380L by calculating an Emax and EC50 value. […] (5% CO2, humidified). […] After the four-hour incubation period, 60 nL of DMSO solutions are transferred to the assay plate.
(§1) Dose response curves include eleven doses with the top final concentration at 30 μM in 0.3% DMSO. Liquid handling is performed with ECHO 550 Acoustic Liquid Handler (Labcyte). After addition of compound treatment, cells are incubated for 24 hours at 37° C. (5% CO2, humidified). After the 24-hour treatment, plates are allowed to equilibrate to room temperature for 10 minutes. Using Dragonfly Automated Liquid Handler (TTP LabTech), 20 μl of HiBit lytic assay reagent (Promega, product #N3040), which is prepared according to manufacturer's instructions, is added to each well. The plates are rotated at room temperature for 2 minutes and incubated for 1 hour at 25° C. before luminescent signal is acquired using an EnVision Multimode Plate Reader (PerkinElmer).

ABCC6 WT = biological target: T2, ABCC6 WT (Homo sapiens, UniProt O95255); experiment: ABCC6 WT assay: HiBit protein expression; details: HEK-293 cells transiently expressing HiBit-tagged ABCC6 WT; 24 h treatment; top concentration 20 μM; read-out: ABCC6 WT EC50, Emax
T2 construct: expressed in transfected cells; host or cells: HEK-293 (transient, Lipofectamine 2000)
In short: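 HEK-293 cells transiently transfected with HiBit-tagged human ABCC6 WT cDNA, seeded 24 h post-transfection, treated 24 h at 37° C with ten 2-fold doses (top 20 μM final, 0.15% DMSO). HiBit lytic luminescence reports protein expression; Emax and EC50 derived.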

ABCB4 WT = biological target: T3, ABCB4 WT (Homo sapiens, UniProt P21439); experiment: ABCB4 WT assay: HiBit protein expression; details: HEK-293 cells stably expressing HiBit-tagged ABCB4 WT; 24 h treatment; top concentration 30 μM; read-out: ABCB4 WT EC50, Emax
T3 construct: expressed in transfected cells
Excerpt: To assess activity against ABCB4, compounds were screened in an assay measuring protein expression, using cells transfected with cDNA encoding HiBit-tagged ABCB4 wild-type.
Described here is an assay for measuring the expression of the wild type of human ABCB4 (henceforth referred to as ABCB4 WT) and the use of this assay to measure the efficacy of compounds to increase the expression of ABCB4 WT. The assay was designed to characterize the efficacy and potency of compounds to increase the expression of ABCB4 WT by calculating an Emax and EC50 value. HEK-293 cells stably expressing ABCB4 WT (HEK-293/ABCB4 WT) were used for this assay and were maintained at 37° C. (5% CO2, humidified) in Dulbecco's Modified Eagle Medium (DMEM, Gibco product #12100) supplemented with 10% fetal bovine serum (Biosera product #FB-1058/500), 1% PenStrep (HDB product #15140-122), and 0.5 mg/mL puromycin (Gibco product #A11138-03). For the assay, the HEK-293/ABCB4 WT cells were seeded in white/opaque 384-well plates (Corning product #3570) at 10,000 cells/well in 20 μl growth medium and allowed to settle for 4 hours at 37° C. (5% CO2, humidified). Compound serial dilutions are prepared in DMSO as three hundred times (333×) the final concentration and using a dilution factor of 3 using Bravo (Agilent). After the four-hour incubation period, 60 nL of DMSO solutions are transferred to the assay plate.
as §1
Results are presented below in Table 5 for ABCB4 WT.

T3 sequence (P21439 whole entry): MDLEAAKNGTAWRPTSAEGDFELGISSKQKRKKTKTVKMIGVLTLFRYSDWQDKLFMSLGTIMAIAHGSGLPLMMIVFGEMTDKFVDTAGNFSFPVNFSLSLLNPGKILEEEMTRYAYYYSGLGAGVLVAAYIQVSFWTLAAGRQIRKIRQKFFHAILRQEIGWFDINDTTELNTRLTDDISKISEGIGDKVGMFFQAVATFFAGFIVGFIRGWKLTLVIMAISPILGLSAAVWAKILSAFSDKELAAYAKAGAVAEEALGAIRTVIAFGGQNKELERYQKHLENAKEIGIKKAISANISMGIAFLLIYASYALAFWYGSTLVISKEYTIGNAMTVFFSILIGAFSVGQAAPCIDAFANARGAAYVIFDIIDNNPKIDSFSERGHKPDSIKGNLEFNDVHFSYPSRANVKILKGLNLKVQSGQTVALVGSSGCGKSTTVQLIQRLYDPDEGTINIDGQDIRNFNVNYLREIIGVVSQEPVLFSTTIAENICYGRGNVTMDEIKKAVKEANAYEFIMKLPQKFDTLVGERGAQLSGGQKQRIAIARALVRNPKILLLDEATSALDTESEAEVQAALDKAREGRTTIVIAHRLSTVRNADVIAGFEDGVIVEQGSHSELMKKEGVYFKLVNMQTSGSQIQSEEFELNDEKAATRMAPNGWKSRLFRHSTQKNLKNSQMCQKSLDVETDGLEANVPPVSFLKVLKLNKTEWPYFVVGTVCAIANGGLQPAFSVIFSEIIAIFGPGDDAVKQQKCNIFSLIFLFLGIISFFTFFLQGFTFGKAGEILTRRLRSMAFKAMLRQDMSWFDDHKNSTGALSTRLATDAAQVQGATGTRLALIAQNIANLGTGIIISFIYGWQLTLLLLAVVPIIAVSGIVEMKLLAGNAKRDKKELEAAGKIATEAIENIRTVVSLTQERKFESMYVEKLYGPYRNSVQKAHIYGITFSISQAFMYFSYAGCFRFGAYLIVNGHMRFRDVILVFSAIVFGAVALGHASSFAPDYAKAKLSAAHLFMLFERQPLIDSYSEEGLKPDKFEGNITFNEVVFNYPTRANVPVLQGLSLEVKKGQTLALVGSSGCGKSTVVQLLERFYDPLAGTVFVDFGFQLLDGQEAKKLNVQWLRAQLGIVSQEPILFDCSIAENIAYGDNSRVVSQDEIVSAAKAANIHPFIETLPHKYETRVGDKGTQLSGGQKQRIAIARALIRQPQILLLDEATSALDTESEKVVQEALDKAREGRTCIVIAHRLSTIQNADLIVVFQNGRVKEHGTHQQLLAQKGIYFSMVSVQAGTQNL
T1 sequence (P78363 whole entry P1380L): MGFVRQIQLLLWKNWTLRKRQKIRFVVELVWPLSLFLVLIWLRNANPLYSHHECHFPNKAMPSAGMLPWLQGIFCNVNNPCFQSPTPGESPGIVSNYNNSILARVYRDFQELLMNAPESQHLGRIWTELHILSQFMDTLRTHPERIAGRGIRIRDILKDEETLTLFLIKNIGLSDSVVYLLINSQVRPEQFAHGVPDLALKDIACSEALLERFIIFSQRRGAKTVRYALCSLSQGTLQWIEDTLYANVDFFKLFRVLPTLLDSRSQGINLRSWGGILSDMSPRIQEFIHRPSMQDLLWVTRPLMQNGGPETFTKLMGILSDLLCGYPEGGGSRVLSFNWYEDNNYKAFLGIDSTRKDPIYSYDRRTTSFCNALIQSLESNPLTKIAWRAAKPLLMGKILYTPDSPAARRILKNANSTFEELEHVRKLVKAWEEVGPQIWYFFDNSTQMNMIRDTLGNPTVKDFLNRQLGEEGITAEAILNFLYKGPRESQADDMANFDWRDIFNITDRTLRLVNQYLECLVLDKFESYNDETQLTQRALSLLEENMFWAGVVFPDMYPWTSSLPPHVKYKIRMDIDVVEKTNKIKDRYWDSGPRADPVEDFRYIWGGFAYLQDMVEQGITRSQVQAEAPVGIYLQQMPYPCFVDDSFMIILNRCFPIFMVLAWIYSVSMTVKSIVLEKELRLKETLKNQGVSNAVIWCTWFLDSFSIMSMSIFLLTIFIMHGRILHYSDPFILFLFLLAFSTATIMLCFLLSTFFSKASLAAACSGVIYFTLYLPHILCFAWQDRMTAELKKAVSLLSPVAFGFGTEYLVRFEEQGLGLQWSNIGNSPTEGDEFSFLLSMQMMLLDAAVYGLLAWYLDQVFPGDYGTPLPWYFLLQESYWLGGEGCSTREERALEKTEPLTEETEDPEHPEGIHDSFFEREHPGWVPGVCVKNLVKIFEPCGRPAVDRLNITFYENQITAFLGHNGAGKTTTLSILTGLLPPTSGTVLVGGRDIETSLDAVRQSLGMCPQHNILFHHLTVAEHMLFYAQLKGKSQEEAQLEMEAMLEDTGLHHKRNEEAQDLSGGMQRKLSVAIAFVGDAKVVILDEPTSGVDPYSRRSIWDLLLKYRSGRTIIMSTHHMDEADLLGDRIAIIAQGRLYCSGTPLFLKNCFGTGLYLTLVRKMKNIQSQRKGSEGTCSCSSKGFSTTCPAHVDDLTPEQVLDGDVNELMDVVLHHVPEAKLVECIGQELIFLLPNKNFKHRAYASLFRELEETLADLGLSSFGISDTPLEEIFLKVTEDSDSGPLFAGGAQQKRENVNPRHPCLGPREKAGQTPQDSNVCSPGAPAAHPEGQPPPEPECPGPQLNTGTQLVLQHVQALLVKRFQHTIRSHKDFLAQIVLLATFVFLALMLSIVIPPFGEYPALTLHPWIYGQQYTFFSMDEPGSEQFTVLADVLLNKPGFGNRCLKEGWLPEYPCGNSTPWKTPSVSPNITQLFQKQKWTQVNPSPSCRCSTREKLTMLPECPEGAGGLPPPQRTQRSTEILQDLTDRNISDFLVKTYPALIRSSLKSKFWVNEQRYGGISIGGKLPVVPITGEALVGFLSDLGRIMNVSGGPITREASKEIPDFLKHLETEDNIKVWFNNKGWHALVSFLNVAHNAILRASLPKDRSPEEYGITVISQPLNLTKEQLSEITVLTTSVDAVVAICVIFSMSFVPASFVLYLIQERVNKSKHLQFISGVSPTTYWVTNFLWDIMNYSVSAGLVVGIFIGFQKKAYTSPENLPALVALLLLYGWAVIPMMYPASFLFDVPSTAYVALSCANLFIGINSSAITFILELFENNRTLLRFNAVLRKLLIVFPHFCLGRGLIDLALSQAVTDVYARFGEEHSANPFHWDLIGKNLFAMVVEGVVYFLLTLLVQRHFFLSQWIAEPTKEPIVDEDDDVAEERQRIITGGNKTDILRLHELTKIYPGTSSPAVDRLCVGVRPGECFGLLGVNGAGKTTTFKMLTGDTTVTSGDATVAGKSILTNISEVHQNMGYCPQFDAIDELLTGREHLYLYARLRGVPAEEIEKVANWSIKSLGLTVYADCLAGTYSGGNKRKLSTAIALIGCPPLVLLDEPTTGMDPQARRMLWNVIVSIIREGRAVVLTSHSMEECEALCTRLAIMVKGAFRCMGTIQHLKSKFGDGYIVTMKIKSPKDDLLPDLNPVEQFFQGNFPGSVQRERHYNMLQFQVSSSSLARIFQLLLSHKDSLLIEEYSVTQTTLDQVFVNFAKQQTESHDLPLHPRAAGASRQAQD
T2 sequence (O95255 whole entry): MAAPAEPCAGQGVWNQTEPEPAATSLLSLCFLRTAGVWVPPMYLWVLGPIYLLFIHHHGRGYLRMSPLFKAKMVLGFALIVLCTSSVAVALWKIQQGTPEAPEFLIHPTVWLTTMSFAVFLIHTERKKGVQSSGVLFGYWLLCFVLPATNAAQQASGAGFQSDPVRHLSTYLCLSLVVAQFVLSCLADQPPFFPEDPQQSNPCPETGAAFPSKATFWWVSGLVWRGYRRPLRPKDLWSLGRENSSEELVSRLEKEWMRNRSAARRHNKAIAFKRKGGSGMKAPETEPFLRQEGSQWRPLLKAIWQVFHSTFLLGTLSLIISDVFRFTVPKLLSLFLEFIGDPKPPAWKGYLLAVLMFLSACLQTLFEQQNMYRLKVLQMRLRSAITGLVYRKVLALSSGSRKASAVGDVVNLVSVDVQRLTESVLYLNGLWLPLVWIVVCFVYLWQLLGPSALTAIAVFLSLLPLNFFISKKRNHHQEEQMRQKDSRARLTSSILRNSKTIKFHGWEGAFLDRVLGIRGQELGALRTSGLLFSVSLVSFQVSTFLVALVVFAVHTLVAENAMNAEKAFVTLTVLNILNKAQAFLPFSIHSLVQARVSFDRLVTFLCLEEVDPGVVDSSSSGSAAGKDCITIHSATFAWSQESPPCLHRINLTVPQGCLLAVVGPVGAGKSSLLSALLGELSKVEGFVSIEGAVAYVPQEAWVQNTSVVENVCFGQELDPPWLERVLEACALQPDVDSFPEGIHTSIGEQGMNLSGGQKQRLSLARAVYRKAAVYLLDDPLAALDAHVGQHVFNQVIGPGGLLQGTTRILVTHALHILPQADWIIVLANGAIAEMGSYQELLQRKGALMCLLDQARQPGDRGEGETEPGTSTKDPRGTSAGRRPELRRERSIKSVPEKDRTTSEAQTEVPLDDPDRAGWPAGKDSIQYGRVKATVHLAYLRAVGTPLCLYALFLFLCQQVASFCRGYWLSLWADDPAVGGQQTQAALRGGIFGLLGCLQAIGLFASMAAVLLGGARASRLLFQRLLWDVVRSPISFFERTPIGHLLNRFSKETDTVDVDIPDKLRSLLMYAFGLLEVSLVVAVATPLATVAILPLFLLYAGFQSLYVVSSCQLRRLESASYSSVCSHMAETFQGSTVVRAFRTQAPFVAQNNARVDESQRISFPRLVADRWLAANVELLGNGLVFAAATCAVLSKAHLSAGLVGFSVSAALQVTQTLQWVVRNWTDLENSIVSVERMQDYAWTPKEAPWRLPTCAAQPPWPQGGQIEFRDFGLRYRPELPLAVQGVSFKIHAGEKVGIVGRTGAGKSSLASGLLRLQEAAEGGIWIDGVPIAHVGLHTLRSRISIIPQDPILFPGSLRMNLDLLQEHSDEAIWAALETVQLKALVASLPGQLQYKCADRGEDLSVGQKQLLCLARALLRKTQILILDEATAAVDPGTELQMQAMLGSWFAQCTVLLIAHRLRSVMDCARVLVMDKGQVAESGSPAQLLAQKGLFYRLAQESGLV

SMILES	EC50 (ABCA4 P1380L)	EC50 (ABCC6 WT)	EC50 (ABCB4 WT)
Cc1cc(C)c(Oc2nc(-n3cc(C)cn3)ccc2NS(C)(=O)=O)c(C)c1 [Compound I-11]	> 25000 nM	1000 to 10000 nM	≥ 25000 nM
CC(=O)N1CCN(c2ccc(NS(C)(=O)=O)c(Oc3c(C)cc(C)cc3C)n2)CC1 [Compound I-17]	> 25000 nM	1000 to 10000 nM	≥ 25000 nM
Cc1nc(Oc2nc(-c3cncc(C#N)c3)ccc2NS(C)(=O)=O)c(C)s1 [Compound I-107]	> 25000 nM	< 1000 nM	≥ 25000 nM
Cc1cc(Oc2nc(-c3cncc(C#N)c3)ccc2NS(C)(=O)=O)nn1C [Compound I-113]	< 25000 nM	1000 to 10000 nM	< 25000 nM
Cc1nn(C)c(C)c1Oc1nc(-c2cncc(C#N)c2)ccc1NS(C)(=O)=O [Compound I-115]	< 25000 nM	< 1000 nM	< 1000 nM
Cc1cc(C)c(Oc2nc(-c3cncc(S(C)(=N)=O)c3)ccc2NS(C)(=O)=O)c(C)n1 (stereo not drawn) [Compound I-116]	> 25000 nM	≥ 25000 nM	≥ 25000 nM
Cc1nc(C2CC2)c(Cl)cc1Oc1nc(-c2cncc(C#N)c2)ccc1NS(C)(=O)=O [Compound I-120]	< 1000 nM	< 1000 nM	< 25000 nM
Cc1cc(OC2CC2)nc(C)c1Oc1nc(-c2cncc(C#N)c2)ccc1NS(C)(=O)=O [Compound I-132]	< 1000 nM	< 1000 nM	< 1000 nM
Cc1cc(C)c(Oc2nc(-c3cncc(C#N)c3)ccc2N(C)S(C)(=O)=O)c(C)n1 [Compound I-166]	1000 to 10000 nM	1000 to 10000 nM	1000 to 10000 nM
CNS(=O)(=O)c1ccc(-c2cncc(C#N)c2)nc1Oc1c(C)nc(C(F)(F)F)nc1C [Compound I-167]	1000 to 10000 nM	1000 to 10000 nM	1000 to 10000 nM
CNS(=O)(=O)c1ccc(-c2cncc(C#N)c2)nc1Oc1c(C)cc(C(F)(F)F)nc1C [Compound I-168]	1000 to 10000 nM	1000 to 10000 nM	1000 to 10000 nM
Cc1cc(C2CC2)c(Oc2nc(-c3cncc(C#N)c3)ccc2NS(C)(=O)=O)c(C)n1 [Compound I-171]	< 1000 nM	< 1000 nM	< 1000 nM

Now from value to molecule:

EC50 (ABCA4 P1380L)	EC50 (ABCC6 WT)	EC50 (ABCB4 WT)	SMILES
> 25000 nM	< 1000 nM	< 25000 nM	Cc1cc(C)c(Oc2nc(-n3cnc(C)c3)ccc2NS(C)(=O)=O)c(C)c1 [Compound I-12]
1000 to 10000 nM	< 1000 nM	1000 to 10000 nM	Cc1cc(C)c(Oc2nc(-c3cnn(C)c3C)ccc2NS(C)(=O)=O)c(C)c1 [Compound I-13]
> 25000 nM	1000 to 10000 nM	≥ 25000 nM	Cc1cc(C)c(Oc2nc(-c3cnn(C)c3)ccc2NS(C)(=O)=O)c(C)c1 [Compound I-14]
1000 to 10000 nM	1000 to 10000 nM	1000 to 10000 nM	Cc1cc(C)c(Oc2nc(N3CCN(C(=O)C4(C)CC4)CC3)ccc2NS(C)(=O)=O)c(C)c1 [Compound I-15]
> 25000 nM	1000 to 10000 nM	≥ 25000 nM	COC(=O)N1CCN(c2ccc(NS(C)(=O)=O)c(Oc3c(C)cc(C)cc3C)n2)CC1 [Compound I-16]
1000 to 10000 nM	< 1000 nM	< 1000 nM	Cc1cc(Oc2nc(-c3cncc(C#N)c3)ccc2NS(C)(=O)=O)c(C)nc1C1CC1 [Compound I-127]
< 1000 nM	< 1000 nM	< 1000 nM	Cc1cc(OC(F)(F)F)nc(C)c1Oc1nc(-c2cncc(C#N)c2)ccc1NS(C)(=O)=O [Compound I-131]
1000 to 10000 nM	< 1000 nM	1000 to 10000 nM	Cc1nc(C)c(Oc2nc(-c3cncc(C#N)c3)ccc2NS(C)(=O)=O)c(C2CC2)n1 [Compound I-165]
1000 to 10000 nM	1000 to 10000 nM	1000 to 10000 nM	Cc1nc(N2CC(S(C)(=O)=O)C2)nc(C)c1Oc1nc(-c2cncc(C#N)c2)ccc1NS(C)(=O)=O [Compound I-169]
< 1000 nM	< 1000 nM	< 1000 nM	Cc1nc(N2CC(F)(F)C2)nc(C)c1Oc1nc(-c2cncc(C#N)c2)ccc1NS(C)(=O)=O [Compound I-170]
